One experiment relates to HCV 1b genotype. The experiment is described as follows: HCV Replicon assay (HCV-neo replicon cells), 1b genotype. The conditions noted are these: Hepatitis C virus; HCV 1b genotype replicon; numeric value; read-out: 1b EC50 (in μM or range). Format: cell-based. Here is the method: An HCV Replicon assay was utilized in the present disclosure, and was prepared, conducted and validated as described in commonly owned PCT/US2006/022197 and in O'Boyle et al., Antimicrob. Agents Chemother., 49(4):1346-1353 (April 2005). Assay methods incorporating luciferase reporters have also been used as described (Apath.com).
HCV-neo replicon cells and replicon cells containing mutations in the NS5A region were used to test the currently described family of compounds. The compounds were determined to have more than 10-fold less inhibitory activity on cells containing mutations than wild-type cells. Thus, the compounds of the present disclosure can be effective in inhibiting the function of the HCV NS5A protein and are understood to be as effective in combinations as previously described in application PCT/US2006/022197 and commonly owned WO 04/014852. Further, the compounds of the present disclosure can be effective against the HCV 1b genotype. It should also be understood that the compounds of the present disclosure can inhibit multiple genotypes of HCV. […] In one embodiment compounds of the present disclosure are inhibitory versus 1a, 1b, 2a, 2b, 3a, 4a, and 5a genotypes. […] The compounds of the present disclosure may inhibit HCV by mechanisms in addition to or other than NS5A inhibition. In one embodiment the compounds of the present disclosure inhibit HCV replicon and in another embodiment the compounds of the present disclosure inhibit NS5A.
Background: In antiviral work, replicon cells carry a viral genome segment that copies itself.
As a reminder, the EC50 is the concentration that produces a half-maximal response. For the molecule `COC(=O)N[C@@H](C)C(=O)N1CCC[C@H]1c1nc(CCc2ccc(CCc3cnc([C@@H]4CCCN4C(=O)[C@H](C)NC(=O)OC)[nH]3)cc2)c[nH]1` [Example 42, methyl ((1S)-2-((2S)-2-(4-(2-(4-(2-(2-((2S)-1-(N-(methoxycarbonyl)-L-alanyl)-2-pyrrolidinyl)-1H-imidazol-4-yl)ethyl)phenyl)ethyl)-1H-imidazol-2-yl)-1-pyrrolidinyl)-1-methyl-2-oxoethyl)carbamate], the EC50 amounted to 0.274 µM.

Staying with this experiment, now noted: Hepatitis C virus; HCV 1b genotype replicon; value given as range class; read-out: 1b EC50 (in μM or range).
Turning to `COC(=O)N[C@@H](C(=O)N1CCC[C@H]1c1nc(/C=C/c2ccc(/C=C/c3cnc([C@@H]4CCCN4C(=O)[C@H](NC(=O)OC)c4ccccc4)[nH]3)cc2)c[nH]1)c1ccccc1` [Example 36, dimethyl (1,4-phenylenebis((E)-2,1-ethenediyl-1H-imidazole-4,2-diyl(2S)-2,1-pyrrolidinediyl((1R)-2-oxo-1-phenyl-2,1-ethanediyl)))biscarbamate], the EC50 was less than 0.001 µM.

As to `COC(=O)N[C@@H](C)C(=O)N1CCC[C@H]1c1nc(/C=C/c2ccc(/C=C/c3cnc([C@@H]4CCCN4C(=O)[C@H](C)NC(=O)OC)[nH]3)cc2)c[nH]1` [Example 37, methyl ((1S)-2-((2S)-2-(4-((E)-2-(4-((E)-2-(2-((2S)-1-(N-(methoxycarbonyl)-L-alanyl)-2-pyrrolidinyl)-1H-imidazol-4-yl)vinyl)phenyl)vinyl)-1H-imidazol-2-yl)-1-pyrrolidinyl)-1-methyl-2-oxoethyl)carbamate], the EC50 is less than 0.001 µM.

As for `COC(=O)N[C@H](C(=O)N1CCC[C@H]1c1nc(/C=C/c2ccc(/C=C/c3cnc([C@@H]4CCCN4C(=O)[C@@H](NC(=O)OC)C(C)C)[nH]3)cc2)c[nH]1)C(C)C` [Example 38, methyl ((1S)-1-(((2S)-2-(4-((E)-2-(4-((E)-2-(2-((2S)-1-((2S)-2-((methoxycarbonyl)amino)-3-methylbutanoyl)-2-pyrrolidinyl)-1H-imidazol-4-yl)vinyl)phenyl)vinyl)-1H-imidazol-2-yl)-1-pyrrolidinyl)carbonyl)-2-methylpropyl)carbamate], the EC50 is less than 0.001 µM.

Turning to `COC(=O)N[C@H](C(=O)N1CCC[C@H]1c1nc(/C=C/c2ccc(/C=C/c3cnc([C@@H]4CCCN4C(=O)[C@@H](NC(=O)OC)[C@@H](C)OC)[nH]3)cc2)c[nH]1)[C@@H](C)OC` [Example 39, methyl ((1S,2R)-2-methoxy-1-(((2S)-2-(4-((E)-2-(4-((E)-2-(2-((2S)-1-(N-(methoxycarbonyl)-O-methyl-L-threonyl)-2-pyrrolidinyl)-1H-imidazol-4-yl)vinyl)phenyl)vinyl)-1H-imidazol-2-yl)-1-pyrrolidinyl)carbonyl)propyl)carbamate], the EC50 is less than 0.001 µM.

`CCN(CC)[C@@H](C(=O)N1CCC[C@H]1c1nc(CCc2ccc(CCc3cnc([C@@H]4CCCN4C(=O)[C@@H](c4ccccc4)N(CC)CC)[nH]3)cc2)c[nH]1)c1ccccc1` [Example 40, (1R)-2-((2S)-2-(4-(2-(4-(2-(2-((2S)-1-((2R)-2-(diethylamino)-2-phenylacetyl)-2-pyrrolidinyl)-1H-imidazol-5-yl)ethyl)phenyl)ethyl)-1H-imidazol-2-yl)-1-pyrrolidinyl)-N,N-diethyl-2-oxo-1-phenylethanamine]: the EC50 was less than 0.001 µM.

`COC(=O)N[C@@H](C(=O)N1CCC[C@H]1c1nc(CCc2ccc(CCc3cnc([C@@H]4CCCN4C(=O)[C@H](NC(=O)OC)c4ccccc4)[nH]3)cc2)c[nH]1)c1ccccc1` [Example 41, dimethyl (1,4-phenylenebis(2,1-ethanediyl-1H-imidazole-4,2-diyl(2S)-2,1-pyrrolidinediyl((1R)-2-oxo-1-phenyl-2,1-ethanediyl)))biscarbamate]: the EC50 was less than 0.001 µM.

As to `COC(=O)N[C@H](C(=O)N1CCC[C@H]1c1nc(CCc2ccc(CCc3cnc([C@@H]4CCCN4C(=O)[C@@H](NC(=O)OC)C(C)C)[nH]3)cc2)c[nH]1)C(C)C` [Example 43, methyl ((1S)-1-(((2S)-2-(4-(2-(4-(2-(2-((2S)-1-((2S)-2-((methoxycarbonyl)amino)-3-methylbutanoyl)-2-pyrrolidinyl)-1H-imidazol-4-yl)ethyl)phenyl)ethyl)-1H-imidazol-2-yl)-1-pyrrolidinyl)carbonyl)-2-methylpropyl)carbamate], the EC50 was in the range of 0.001 to 0.01 µM.

With `COC(=O)N[C@H](C(=O)N1CCC[C@H]1c1nc(CCc2ccc(CCc3cnc([C@@H]4CCCN4C(=O)[C@@H](NC(=O)OC)[C@@H](C)OC)[nH]3)cc2)c[nH]1)[C@@H](C)OC` [Example 44, methyl ((1S,2R)-2-methoxy-1-(((2S)-2-(4-(2-(4-(2-(2-((2S)-1-(N-(methoxycarbonyl)-O-methyl-L-threonyl)-2-pyrrolidinyl)-1H-imidazol-4-yl)ethyl)phenyl)ethyl)-1H-imidazol-2-yl)-1-pyrrolidinyl)carbonyl)propyl)carbamate], the concentration giving a half-maximal response (EC50) lay in the range of 0.01 to 10 µM.

For `COC(=O)N[C@@H](C(=O)N1CCC[C@H]1c1ncc(C#Cc2ccc(-c3cnc([C@@H]4CCCN4C(=O)[C@H](NC(=O)OC)c4ccccc4)[nH]3)cc2)[nH]1)c1ccccc1` [Example M1, Methyl ((1R)-2-((2S)-2-(4-(4-((2-((2S)-1-((2R)-2-((methoxycarbonyl)amino)-2-phenylacetyl)-2-pyrrolidinyl)-1H-imidazol-4-yl)ethynyl)phenyl)-1H-imidazol-2-yl)-1-pyrrolidinyl)-2-oxo-1-phenylethyl)carbamate], the half-maximal effective concentration (EC50) was less than 0.001 µM.

Turning to `COC(=O)N[C@@H](C(=O)N1CCC[C@H]1c1ncc(CCc2ccc(-c3cnc([C@@H]4CCCN4C(=O)[C@H](NC(=O)OC)c4ccccc4)[nH]3)cc2)[nH]1)c1ccccc1` [Example M2, Methyl ((1R)-2-((2S)-2-(4-(4-(2-(2-((2S)-1-((2R)-2-((methoxycarbonyl)amino)-2-phenylacetyl)-2-pyrrolidinyl)-1H-imidazol-4-yl)ethyl)phenyl)-1H-imidazol-2-yl)-1-pyrrolidinyl)-2-oxo-1-phenylethyl)carbamate], the EC50 is less than 0.001 µM.

Regarding `CN(C)[C@@H](C(=O)N1CCC[C@H]1c1ncc(CCc2ccc(-c3cnc([C@@H]4CCCN4C(=O)[C@@H](c4ccccc4)N(C)C)[nH]3)cc2)[nH]1)c1ccccc1` [Example M3, [(1R)-2-((2S)-2-(4-(4-(2-(2-((2S)-1-((2R)-2-(Dimethylamino)-2-phenylacetyl)-2-pyrrolidinyl)-1H-imidazol-4-yl)ethyl)phenyl)-1H-imidazol-2-yl)-1-pyrrolidinyl)-N,N-dimethyl-2-oxo-1-phenylethanamine]], the concentration for a half-maximal effect (EC50) was in the range of 0.001 to 0.01 µM.

Turning to `COC(=O)N[C@H](C(=O)N1CCC[C@H]1c1ncc(C#Cc2ccc(C#Cc3cnc([C@@H]4CCCN4C(=O)[C@@H](NC(=O)OC)C(C)C)[nH]3)cc2)[nH]1)C(C)C` [Example M4, Methyl((1S)-1-(((2S)-2-(4-((4-((2-((2S)-1-((2S)-2-((methoxycarbonyl)amino)-3-methylbutanoyl)-2-pyrrolidinyl)-1H-imidazol-4-yl)ethynyl)phenyl)ethynyl)-1H-imidazol-2-yl)-1-pyrrolidinyl)carbonyl)-2-methylpropyl)carbamate], the 50% effective concentration (EC50) is less than 0.001 µM.

Source of the values: US8618153B2, “Hepatitis C virus inhibitors” (Bristol-Myers Squibb Company, priority 2009, dated 2013).
